One experiment concerns U-87 MG. In words: Inhibition of cell viability in human U-87 MG cells incubated for 24 hrs by MTT assay. The class given is functional, cell-based, U-87MG ATCC.
For the next experiment, the system named is T98G. In words: Inhibition of cell viability in human T98G cells incubated for 24 hrs by MTT assay. The class given is functional, cell-based.
The nature of a further experiment: cells. The following applies: Homo sapiens, Bel-7402, 48 h.
Experiment [1] in a line: Cytotoxicity against human Leukemic stem cells incubated for 72 hrs by MTT assay. The class given is functional, cell-based. The conditions noted are these: Leukemic stem cell.
Experiment [2] has as its target T1, Nuclear factor erythroid 2-related factor 2 (Homo sapiens, UniProt Q16236).
T1 sequence (Q16236 whole entry): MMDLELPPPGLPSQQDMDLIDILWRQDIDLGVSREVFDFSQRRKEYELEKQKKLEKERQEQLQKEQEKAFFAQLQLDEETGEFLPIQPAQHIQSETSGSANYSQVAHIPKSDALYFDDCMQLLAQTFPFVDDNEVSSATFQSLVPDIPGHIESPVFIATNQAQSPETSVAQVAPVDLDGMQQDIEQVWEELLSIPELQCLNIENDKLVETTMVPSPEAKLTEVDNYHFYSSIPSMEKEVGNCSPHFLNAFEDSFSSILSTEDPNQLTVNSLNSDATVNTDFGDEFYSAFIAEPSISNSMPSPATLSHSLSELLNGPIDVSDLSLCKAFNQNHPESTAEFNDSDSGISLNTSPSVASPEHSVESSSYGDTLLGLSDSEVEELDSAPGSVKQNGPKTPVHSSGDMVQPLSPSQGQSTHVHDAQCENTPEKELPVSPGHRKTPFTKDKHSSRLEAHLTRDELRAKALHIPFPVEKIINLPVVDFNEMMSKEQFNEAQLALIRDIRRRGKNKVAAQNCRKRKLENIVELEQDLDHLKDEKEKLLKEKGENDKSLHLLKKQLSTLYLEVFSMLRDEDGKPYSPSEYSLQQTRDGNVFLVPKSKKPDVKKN
In words: Inhibition of NRF2 in human KYSE-70 cells. The class given is cell-based.

For experiment [3], the target named is T1, Nuclear factor erythroid 2-related factor 2. In words: Inhibition of NRF2 in human A549 cells. The class given is cell-based.
Experiment [4] can be described thus: Cytotoxicity against human MCF7-DOX cells incubated for 24 hrs by MTT assay. The class given is functional, cell-based.
The test system of the next experiment is A2780. In words: Inhibition of cell growth of human A2780 cells incubated for 24 to 96 hrs with re-current replacement of media containing compound for every 48 hrs by CCK8 assay. The class given is functional, cell-based.
A further experiment deals with SK-OV-3. In words: Inhibition of cell growth of human SK-OV-3 cells incubated for 24 to 96 hrs with re-current replacement of media containing compound for every 48 hrs by CCK8 assay. The experiment is classed as functional, cell-based.
A further experiment deals with Caov-4. In words: Inhibition of cell growth of human Caov-4 cells incubated for 24 to 96 hrs with re-current replacement of media containing compound for every 48 hrs by CCK8 assay. The class given is functional, cell-based.
The subject of the next experiment is THP-1. In words: Cytotoxicity against human THP-1 cells incubated for 48 hrs by CCK8 assay. The experiment is classed as functional, cell-based. The conditions noted are these: THP-1, 48 h.
The target of another experiment is NRF2-MAFG (Homo sapiens, UniProt O15525+Q16236). In words: Inhibition of NRF2/MAFG (unknown origin) heterodimerization using fluorescein-labeled ARE DNA duplex as substrate preincubated for 1 hr followed by substrate addition measured after 1 hr by FP assay. The experiment is classed as protein-complex assay.
Chain of NRF2-MAFG (O15525 whole entry, one chain of several): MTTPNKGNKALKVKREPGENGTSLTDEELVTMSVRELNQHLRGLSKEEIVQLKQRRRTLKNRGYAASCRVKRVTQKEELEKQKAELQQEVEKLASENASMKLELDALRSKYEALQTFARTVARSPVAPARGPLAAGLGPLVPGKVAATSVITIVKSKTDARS

Consider 9 compounds from ChEMBL document CHEMBL5614432, “NRF2 inhibitors: Recent progress, future design and therapeutic potential” (Eur J Med Chem, 2024).

pIC50: −log10 of the molar value.

Description for cells: Cytotoxicity against human BEL-7402/ADM cells incubated for 48 hrs by MTT assay

`CC(C)c1cccc(=O)c(O)c1` [HINOKITIOL]: the figures for the pIC50 in the experiment on U-87 MG and in the experiment with T98G were 3.50 and 3.82, respectively.

`O=c1cc(-c2ccccc2)oc2cc(O)cc(O)c12` [CHRYSIN]: the pIC50 in the experiment “cells” is roughly 4.52. As for `CC(C)[C@]12O[C@H]1[C@@H]1O[C@]13[C@]1(O[C@H]1C[C@H]1C4=C(CC[C@@]13C)C(=O)OC4)[C@@H]2O` [TRIPTOLIDE], the pIC50 in experiment [1] is 7.69. In the experiment “cells”, `O=c1cc(-c2ccc(O)cc2)oc2cc(O)cc(O)c12` [APIGENIN] gave a pIC50 of roughly 4.30.

Turning to `O=C(CC1NCCCC1O)Cn1cnc2cc(Br)c(Cl)cc2c1=O` (stereo not drawn) [HALOFUGINONE], the pIC50 in experiment [2] is 7.65; in experiment [3], 7.43. Turning to `COc1c(O)cc(O)c2c(=O)cc(-c3ccccc3)oc12` [WOGONIN], the pIC50 in [4] is roughly 3.82.

Take `N#CC1(c2ccc(NC(=O)c3cccnc3NCc3ccncc3)cc2)CCCC1` [RIVOCERANIB]: the negative logarithm of the IC50 (pIC50) in the experiment on A2780, with SK-OV-3 and with Caov-4 was roughly 4.70 throughout. Compound `CC(C)(C)c1ccc(Cn2nc(-c3ccc(Cl)cc3)cc2C(=O)NO)cc1` had a negative-log IC50 (pIC50) in the experiment on THP-1 of 5.27. `Cc1ccccc1C(=O)N1CCc2cc(-c3nc(NC(=O)Cc4ccc5c(c4)OCO5)sc3C)ccc21` had a negative logarithm of the IC50 (pIC50) against NRF2-MAFG of 5.72.
